Measurements from patent US20110245105A1, “Methods and Kits for Direct Detection and Susceptibility Profiling of Beta-Lactam Resistant Bacteria” (YISSUM RESEARCH DEVELOPMENT COMPANY OF THE HEBREW …, priority 2008, published 2011).

Tests used:
Assay type in all cases: cell-based
Prot. mirabilis [1] = experiment: conventional lab procedures [CLP], resistance of bacterial isolates; settings: 1 sample (r18)
From the text: (§1) The same specimens were examined using conventional lab procedures [CLP] that determined the identity of the bacterial isolates and their resistance to the above beta-lactams.

Proteus mirabilis = experiment: modular antibiotic resistance detection kit on urine sample pellets
Method: (§2) A modular antibiotic resistance detection kit offers more flexibility in testing different resistance profiles. In the modular detection kit exemplified here, the ART strip is replaced by filter paper segments glued to a slide, each segment impregnated with a single antibiotic.
(§3) Specifically, pathogen samples were tested using filter papers impregnated with the following beta-lactam antibiotics: ampicillin [Amp], augmentin (a combination of amoxicillin and clavulanic acid) [AMC], clavulanic acid (Reduced Resistance test) [RR], ceftazidime [Caz] and either imipenem or meropenem [CPM]. The impregnation details of the fragments were as in the previous Examples.
(§4) Filter paper (Whatman no. 3] strips impregnated with Assay Reagent solution were used as “indicator strips”. An indicator strip was attached to the plain top slide as shown in FIG. 2. Aliquots of the pellets of the urine samples tested were placed on each of the segments. The test was started by placing the activated indicator-strip-slide, on the modular antibiotic slide. The scan results obtained after 5-10 min at 38° C. are illustrated schematically in FIG. 2 where all segments, except for the negative (no antibiotic) control, show decolorization indicating resistance to each antibiotic in that array.
(§5) Samples resistant to ceftazidime but affected by clavulanic acid were assumed to contain extended spectrum beta lactamases (ESBLs). The ‘Confirmed’ detections column summarizes the number of CLP-validated results out of the total findings recorded.

K. pneumoniae [2] = experiment: as above
Method: as §2, §3, §4, §5

E. coli [3] = experiment: as above
Method: as §2, §3, §4, §5

Citrobacter freundii = experiment: as above; settings: profile r23, ESBL Pos; further: key: R = resistant; S = sensitive
Method: as §2, §3, §4, §5

E. coli [4] = experiment: ART strip (Antibiotics Resistance Test), iodometric detection of beta-lactam hydrolysis by un-cultured urine sample pellets
Method: (§6) Filter paper (Whatman no. 3) strips impregnated with 50 mM potassium iodide and 10 mM iodine in 0.75% aqueous starch solution were divided into 6 test areas. Appropriate antibiotic substrates were prepared at a final concentration of 20 mg/mL. Each test area was impregnated with 30 μL of the appropriate solution. The strips were then dried in a lyophilizer and stored with a desiccant at 4° C.
(§7) One mL urine samples were spun 2 minutes at 3000 RPM in room temperature. Supernatants were removed and aliquots of the resulting pellets were streaked on standard slides.
(§8) The product of the enzymatic degradation of a beta-lactam antibiotic removes the iodine from the ART strip and causes local decolorization in that strip. Typically, a detection kit consists of two slides, as illustrated in FIG. 2. The bottom slide is streaked with the sample to be tested. The top slide (lid) carries the ART strip which is activated when each test area on the strip receives 25 μL of the activator solution consisting of 40 mg gelatin in 100 mL phosphate buffer pH 6.5. The test starts when the top slide carrying the freshly activated ART strip contacts the bottom slide carrying the sample. It may be carried out at ambient temperatures but will be accelerated by warming-up to 41° C. […] Result is confirmed if no decolorization took place in the absence of the bacteria (the background of that test area) or in the absence of the antibiotic (as in Test Area 2 in FIG. 1).
(§9) One mL urine sample pellets were collected as described in Example 1 and each streaked on a slide. The strip of the invention (termed ART for Antibiotics Resistance Test) was used to test for beta-lactamase and its ability to degrade Ceftazidime [Caz], Ceftriaxone [Cro], Cefuroxime [Cxm] and Ampicillin [Amp]. The strip, containing iodine and starch and divided to areas containing each of the abovementioned antibiotics, and attached to a plain slide, was activated as shown above, and placed on the streaked slide. After 5-15 minutes at 33° C.-38° C. the slide was scanned and recorded.

Str. agalactiae = experiment: ART strip test on urine sample pellets; settings: 3 samples (r34)
Method: as §6, §7, §8, §9

Citr. koseri = experiment: ART strip test on urine sample pellets; settings: 2 samples (r25)
Method: as §6, §7, §8, §9

Morg. morganii [5] = experiment: ART strip test on urine sample pellets
Method: as §6, §7, §8, §9

E. faecalis = experiment: ART strip test on urine sample pellets; settings: 4 samples (r27)
Method: as §6, §7, §8, §9

Staphylococcus sp. = experiment: ART strip test on urine sample pellets
Method: as §6, §7, §8, §9

K. oxytoca = experiment: ART strip test on urine sample pellets
Method: as §6, §7, §8, §9

Prot. mirabilis [6] = experiment: ART strip test on urine sample pellets
Method: as §6, §7, §8, §9

K. pneumoniae [7] = experiment: ART strip test on urine sample pellets
Method: as §6, §7, §8, §9

Acinetobacter sp. = experiment: ART strip test on urine sample pellets; settings: 1 sample (r29)
Method: as §6, §7, §8, §9

E. coli [8] = experiment: conventional lab procedures [CLP], resistance of bacterial isolates; settings: profile r9 of Table 2; further: key: R = resistant; S = sensitive
From the text: as §1

[9] = system: carbapenem-resistant Enterobacteriaceae; experiment: modular kit for detection of CRE in urine sample; settings: CRE-containing urine sample pellets; 12 minutes at 38° C.
Method: The kit constructed as a twin-slide [as illustrated by FIG. 1] carries an “OCTET” strip impregnated [as in Example 1] with an array of eight beta-lactam antibiotics and 1 non-beta-lactam control [S].
To illustrate the life-saving potential of the proposed technology which eliminates delays in diagnosis of carbapenem-resistant members of the Enterobacteriaceae family (CRE), a CRE sample was analyzed using the invention's modular kit, containing ampicillin, ceftazidime, augmentin, cefotaxime, imipenem, cefuroxime, meropenem and ceftriaxone as beta-lactamase substrates and a non-beta-lactam antibiotic, served as a negative control.
Filter paper segments were glued to a slide, each segment impregnated with a single antibiotic of the abovementioned antibiotics and streaked with carbapenem-resistant Enterobacteriaceae-containing urine sample pellets, prepared as described in Examples 1 to 3. The slide was contacted with indicator strips attached to a slide.

Morg. morganii [10] = experiment: conventional lab procedures [CLP], resistance of bacterial isolates; settings: 1 sample (r23)
From the text: as §1

K. pneumoniae [11] = experiment: as above; settings: profile r19 of Table 2
From the text: as §1

[12] = Proteus mirabilis (3 samples), profile r25, ESBL Pos
[13] = Proteus mirabilis, profile r26, ESBL Pos
[14] = Proteus mirabilis, profile r27, ESBL Neg
[15] = K. pneumoniae (5 samples), profile r17, ESBL Pos
[16] = K. pneumoniae, profile r18, ESBL Pos
[17] = K. pneumoniae, profile r20, ESBL Pos
[18] = K. pneumoniae, profile r21, ESBL Neg
[19] = E. coli (16 samples), profile r6, ESBL Neg, 5-10 min at 38° C.
[20] = 28 samples (r6), 5-15 minutes at 33° C.-38° C.

CC1(C)S[C@@H]2[C@H](NC(=O)[C@H](N)c3ccccc3)C(=O)N2[C@H]1C(=O)O [Amp, Ampicillin]
S: CLP result differing from ART (in brackets) (Prot. mirabilis [1]) | resistance found with modular kit (E. coli [3]; [19]) | resistance found with modular kit (E. coli [3]; E. coli, profile r7) | resistance profile predicted by ART (E. coli [4]; 12 samples (r7)) | resistance profile predicted by ART (Str. agalactiae) | resistance profile predicted by ART (E. faecalis) | resistance profile predicted by ART (Staphylococcus sp.; 1 sample (r32)) | resistance profile predicted by ART (Acinetobacter sp.)
R: resistance found with modular kit (Proteus mirabilis; [12]) | resistance found with modular kit (Proteus mirabilis; [13]) | resistance found with modular kit (Proteus mirabilis; [14]) | resistance found with modular kit (K. pneumoniae [2]; [15]) | resistance found with modular kit (K. pneumoniae [2]; [16]) | resistance found with modular kit (K. pneumoniae [2]; K. pneumoniae, profile r19) | resistance found with modular kit (K. pneumoniae [2]; [17]) | resistance found with modular kit (K. pneumoniae [2]; [18]) | resistance found with modular kit (E. coli [3]; E. coli, profile r8) | resistance found with modular kit (E. coli [3]; E. coli, profile r9, ESBL Neg) | resistance found with modular kit (E. coli [3]; E. coli, profile r10, ESBL Neg) | resistance found with modular kit (E. coli [3]; E. coli, profile r11, ESBL Neg) | resistance found with modular kit (E. coli [3]; E. coli, profile r12, ESBL Neg) | resistance found with modular kit (E. coli [3]; E. coli, profile r13) | resistance found with modular kit (E. coli [3]; E. coli, profile r14, ESBL Pos) | resistance found with modular kit (E. coli [3]; E. coli, profile r15, ESBL Pos) | resistance found with modular kit (Citrobacter freundii) | resistance profile predicted by ART (E. coli [4]; 3 samples (r8), MDR) | resistance profile predicted by ART (E. coli [4]; [20]) | resistance profile predicted by ART (Citr. koseri) | resistance profile predicted by ART (Morg. morganii [5]; 1 sample (r22)) | resistance profile predicted by ART (Morg. morganii [5]; 1 sample (r23)) | resistance profile predicted by ART (Staphylococcus sp.; 1 sample (r31)) | resistance profile predicted by ART (K. oxytoca; 1 sample (r15)) | resistance profile predicted by ART (K. oxytoca; 3 samples (r14)) | resistance profile predicted by ART (Prot. mirabilis [6]; 1 sample (r18)) | resistance profile predicted by ART (Prot. mirabilis [6]; 1 sample (r19)) | resistance profile predicted by ART (Prot. mirabilis [6]; 1 sample (r20)) | resistance profile predicted by ART (Prot. mirabilis [6]; 6 samples (r17)) | resistance profile predicted by ART (K. pneumoniae [7]; 1 sample (r12)) | resistance profile predicted by ART (K. pneumoniae [7]; 8 samples (r11)) | resistance profile predicted by ART (K. pneumoniae [7]; 11 samples (r10), MDR)

augmentin [AMC]
I: resistance found with modular kit (Proteus mirabilis; [12]) | resistance found with modular kit (K. pneumoniae [2]; [15]) | resistance found with modular kit (E. coli [3]; E. coli, profile r10, ESBL Neg) | resistance found with modular kit (E. coli [3]; E. coli, profile r11, ESBL Neg) | resistance found with modular kit (E. coli [3]; E. coli, profile r12, ESBL Neg)
hydrolysis: hydrolysis by the tested specimen (decolorization) [9]
S: CLP result differing from kit (in brackets) (E. coli [8]) | resistance found with modular kit (Proteus mirabilis; [13]) | resistance found with modular kit (K. pneumoniae [2]; [18]) | resistance found with modular kit (E. coli [3]; [19]) | resistance found with modular kit (E. coli [3]; E. coli, profile r7) | resistance found with modular kit (E. coli [3]; E. coli, profile r8)
R: resistance found with modular kit (Proteus mirabilis; [14]) | resistance found with modular kit (K. pneumoniae [2]; [16]) | resistance found with modular kit (K. pneumoniae [2]; K. pneumoniae, profile r19) | resistance found with modular kit (K. pneumoniae [2]; [17]) | resistance found with modular kit (E. coli [3]; E. coli, profile r9, ESBL Neg) | resistance found with modular kit (E. coli [3]; E. coli, profile r13) | resistance found with modular kit (E. coli [3]; E. coli, profile r14, ESBL Pos) | resistance found with modular kit (E. coli [3]; E. coli, profile r15, ESBL Pos) | resistance found with modular kit (Citrobacter freundii)

CC(C)(O/N=C(\C(=O)N[C@@H]1C(=O)N2C(C(=O)[O-])=C(C[n+]3ccccc3)CS[C@H]12)c1csc(N)n1)C(=O)O [Caz, Ceftazidime]
S[nd]: resistance profile predicted by ART (Str. agalactiae) | resistance profile predicted by ART (E. faecalis)
S: CLP result differing from kit (in brackets) (K. pneumoniae [11]) | resistance found with modular kit (Proteus mirabilis; [14]) | resistance found with modular kit (K. pneumoniae [2]; [18]) | resistance found with modular kit (E. coli [3]; [19]) | resistance found with modular kit (E. coli [3]; E. coli, profile r9, ESBL Neg) | resistance found with modular kit (E. coli [3]; E. coli, profile r10, ESBL Neg) | resistance found with modular kit (E. coli [3]; E. coli, profile r11, ESBL Neg) | resistance found with modular kit (E. coli [3]; E. coli, profile r12, ESBL Neg) | resistance profile predicted by ART (E. coli [4]; 12 samples (r7)) | resistance profile predicted by ART (E. coli [4]; [20]) | resistance profile predicted by ART (Citr. koseri) | resistance profile predicted by ART (Morg. morganii [5]; 1 sample (r22)) | resistance profile predicted by ART (Morg. morganii [5]; 1 sample (r23)) | resistance profile predicted by ART (Staphylococcus sp.; 1 sample (r31)) | resistance profile predicted by ART (Staphylococcus sp.; 1 sample (r32)) | resistance profile predicted by ART (K. oxytoca; 1 sample (r15)) | resistance profile predicted by ART (K. oxytoca; 3 samples (r14)) | resistance profile predicted by ART (Prot. mirabilis [6]; 1 sample (r18)) | resistance profile predicted by ART (Prot. mirabilis [6]; 1 sample (r19)) | resistance profile predicted by ART (Prot. mirabilis [6]; 6 samples (r17)) | resistance profile predicted by ART (K. pneumoniae [7]; 1 sample (r12)) | resistance profile predicted by ART (K. pneumoniae [7]; 8 samples (r11)) | resistance profile predicted by ART (Acinetobacter sp.)
R: CLP result differing from ART (in brackets) (Morg. morganii [10]) | resistance found with modular kit (Proteus mirabilis; [12]) | resistance found with modular kit (Proteus mirabilis; [13]) | resistance found with modular kit (K. pneumoniae [2]; [15]) | resistance found with modular kit (K. pneumoniae [2]; [16]) | resistance found with modular kit (K. pneumoniae [2]; K. pneumoniae, profile r19) | resistance found with modular kit (K. pneumoniae [2]; [17]) | resistance found with modular kit (E. coli [3]; E. coli, profile r14, ESBL Pos) | resistance found with modular kit (E. coli [3]; E. coli, profile r15, ESBL Pos) | resistance found with modular kit (Citrobacter freundii) | resistance profile predicted by ART (E. coli [4]; 3 samples (r8), MDR) | resistance profile predicted by ART (Prot. mirabilis [6]; 1 sample (r20)) | resistance profile predicted by ART (K. pneumoniae [7]; 11 samples (r10), MDR)
